Laboratory results taken from patent US7205403B2, “8-Heteroaryl xanthine adenosine A2B receptor antagonists” (King Pharmaceuticals Research and Development, Inc., priority 2002, dated 2007).

Legend:
[1] = target: T1, human A2A adenosine receptor (Homo sapiens, UniProt P29274); experiment: [3H]ZM241385 binding to human A2A receptors expressed in CHO cells; details: read-out: Ki, [3H]ZM241385 binding to human A2A receptors expressed in CHO cells
T1 construct: expressed in transfected cells; host or cells: CHO cells (membranes)
Protocol: (§1) The cells were grown adherently and maintained in Dulbecco's modified Eagle's medium with nutrient mixture F12 without nucleosides at 37° C. in 5% CO2/95% air. The cells were washed with phosphate-buffered saline and scraped off flasks in ice cold hypotonic buffer ([…] Tris HCl, 2 mM EDTA, pH 7.4). The cell suspension was homogenized with a Polytron and the homogenate was centrifuged for 30 minutes at 48,000 g. The resultant membrane pellet was re-suspended in 50 mM Tris HCl buffer at pH 7.4 for A1 adenosine receptors; in 50 mM Tris HCl 10 mM MgCl, at pH 7.4 for A2A adenosine receptors; in 50 mM Tris HCl, 10 mM MgCl2, 1 mM EDTA, at pH 7.4 for A3 adenosine receptors and were utilized for binding assays.
(§2) The filter bound radioactivity was counted on Top Count (efficiency 57%) with Micro-Scint 20.
(§3) The filter bound radioactivity was counted on a Top Count brand Microplate Scintillation Counter (efficiency 57%) with Micro-Scint 20. […] Inhibitory binding constant. […] Results and Discussion

[2] = target: T2, human A3 adenosine receptor (Homo sapiens, UniProt P0DMS8); experiment: [3H]MRE3008F20 binding to human A3 receptors expressed in CHO cells
T2 construct: expressed in transfected cells; host or cells: CHO cells (membranes)
T2 sequence (P0DMS8 1-318): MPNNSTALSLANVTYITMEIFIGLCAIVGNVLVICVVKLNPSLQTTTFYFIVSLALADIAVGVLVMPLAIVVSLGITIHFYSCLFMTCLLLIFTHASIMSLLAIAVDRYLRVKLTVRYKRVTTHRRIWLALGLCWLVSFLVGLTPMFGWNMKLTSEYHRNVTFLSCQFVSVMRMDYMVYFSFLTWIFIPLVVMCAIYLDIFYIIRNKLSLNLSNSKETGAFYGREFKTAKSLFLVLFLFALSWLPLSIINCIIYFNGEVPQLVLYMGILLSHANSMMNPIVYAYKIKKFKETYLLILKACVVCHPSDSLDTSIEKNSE
Protocol: as §1
Binding of [^3H]-MRE3008-F20 to CHO cells transfected with the human recombinant A3 adenosine receptors was performed according to Varani et al., 2000. Competition experiments were carried out in duplicate in a final volume of 250 μl in test tubes containing 1 nM [^3H]-MRE3008-F20, 50 mM Tris HCl buffer, […] MgCl2, pH 7.4 and 100 μl of diluted membranes (50 μg of protein/assay) and at least 6–8 different concentrations of examined ligands for 120 minutes at 4° C.
as §2, §3

[3] = target: T3, human A2B adenosine receptor (Homo sapiens, UniProt P29275); experiment: [3H]DPCPX binding to human A2B receptors expressed in HEK293 cells; set-up: host or cells: HEK 293 cells (membranes); details: geometric mean (95% confidence interval); >1000 = no appreciable binding; read-out: Ki, [3H]DPCPX binding to human A2B receptors expressed in HEK293 cells
T3 sequence (P29275 1-332): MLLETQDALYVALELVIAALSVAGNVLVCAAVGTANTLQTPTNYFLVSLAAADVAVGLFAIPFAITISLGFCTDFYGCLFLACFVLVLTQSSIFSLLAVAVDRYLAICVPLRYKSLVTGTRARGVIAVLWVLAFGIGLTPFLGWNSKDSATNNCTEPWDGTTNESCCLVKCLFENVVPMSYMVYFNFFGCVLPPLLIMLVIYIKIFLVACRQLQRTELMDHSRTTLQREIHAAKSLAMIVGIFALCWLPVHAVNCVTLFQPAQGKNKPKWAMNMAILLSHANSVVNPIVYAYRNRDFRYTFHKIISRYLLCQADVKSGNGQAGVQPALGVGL
Protocol: HEK 293 cells transfected with the human recombinant A2B adenosine receptor were obtained from Receptor Biology, Inc. (Beltsville, Md. USA).
Binding of 1 [^3H]-DPCPX to HEK 293 cells transfected with the human recombinant A2B adenosine receptors was performed according to the method described by Varani et al., 2000. In particular, assays were carried out for 60 minutes at 25° C. in 100 μl of […] Tris HCl buffer, […] MgCl2, 1 mM EDTA, 0.1 mM benzamidine pH 7.4, 2 IU/ml adenosine deaminase containing 40 nM [^3H]-DPCPX, diluted membranes (20 μg of protein/assay) and at least 6–8 different concentration of tested compounds.
as §2, §3

T1 sequence (P29274 whole entry): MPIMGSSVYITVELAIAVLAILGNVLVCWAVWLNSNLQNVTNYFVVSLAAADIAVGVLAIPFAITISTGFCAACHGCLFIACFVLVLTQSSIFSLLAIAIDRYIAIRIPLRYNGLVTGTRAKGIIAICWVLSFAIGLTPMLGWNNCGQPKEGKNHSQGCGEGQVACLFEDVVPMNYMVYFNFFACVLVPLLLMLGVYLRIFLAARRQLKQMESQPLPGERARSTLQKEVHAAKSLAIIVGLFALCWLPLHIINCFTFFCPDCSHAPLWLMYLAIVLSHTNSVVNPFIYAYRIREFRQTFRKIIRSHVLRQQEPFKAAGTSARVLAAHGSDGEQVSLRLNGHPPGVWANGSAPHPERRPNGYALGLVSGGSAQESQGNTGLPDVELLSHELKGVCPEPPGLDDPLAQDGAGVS

| Compound | Ki [1] | Ki [2] | Ki [3] |
| --- | --- | --- | --- |
| CCCn1c(=O)c2[nH]c(-c3cc(OCC(=O)Nc4ccc(OC)c(OC)c4)no3)nc2n(CCC)c1=O [AS76, 1,3-di-n-propyl-8-{3-[(3,4-dimethoxy-phenylcarbamoyl)-methoxy]-isoxazol-5-yl}-xanthine] | > 1000 nM | > 1000 nM | 51 nM |
| CCCn1c(=O)c2[nH]c(-c3ccc(OCC(=O)Nc4ccc(I)cc4)nc3)nc2n(CCC)c1=O [AS81, 1,3-di-n-propyl-8-{6-[(4-iodo-phenylcarbamoyl)-methoxy]-pyridin-3-yl}-xanthine] | > 1000 nM | > 1000 nM | 108 nM |
| CCCn1c(=O)c2[nH]c(-c3ccc(OCC(=O)Nc4ccc(I)cc4)nn3)nc2n(CCC)c1=O [AS85, 1,3-di-n-propyl-8-{6-[(4-iodo-phenylcarbamoyl)-methoxy]-pyridazin-3-yl}-xanthine] | > 1000 nM | > 1000 nM | > 1000 nM |
| CCCn1c(=O)c2[nH]c(-c3cc(OCC(=O)N4CCN(C)CC4)nn3C)nc2n(CCC)c1=O [AS87, 1,3-di-n-propyl-8-{5-[2-Oxo-2-(4-methyl-piperazin-1-yl)-ethoxy]-2-methyl-2H-pyrazole-3-yl}-xanthine] | > 1000 nM | > 1000 nM | 122 nM |
| CCCn1c(=O)c2[nH]c(-c3cc(OCC(=O)Nc4ccc(N5CCOCC5)cc4)nn3C)nc2n(CCC)c1=O [AS93, 1,3-di-n-propyl-8-{5-[(4-(morpholine-4-yl)-phenylcarbamoyl)-methoxy]-2-methyl-2H-pyrazole-3-yl}-xanthine] | > 1000 nM | > 1000 nM | 86 nM |
| CCCn1c(=O)c2[nH]c(-c3cc(OCC(=O)Nc4ccc(C(=O)OCC)cc4)nn3C)nc2n(CCC)c1=O [AS94, 1,3-di-n-propyl-8-{5-[(4-(ethoxycarbonyl)-phenylcarbamoyl)-methoxy]-2-methyl-2H-pyrazole-3-yl}-xanthine] | > 1000 nM | > 1000 nM | 32 nM |
| CCCn1c(=O)c2[nH]c(-c3cc(OCC(=O)Nc4ccc(C(=O)O)cc4)nn3C)nc2n(CCC)c1=O [AS95, 1,3-di-n-propyl-8-{5-[(4-carboxy-phenylcarbamoyl)-methoxy]-2-methyl-2H-pyrazole-3-yl}-xanthine] | > 1000 nM | > 1000 nM | 36 nM |
| C=CCn1c(=O)c2[nH]c(-c3cc(OCC(=O)N4CCN(c5ccccc5)CC4)nn3C)nc2n(CC=C)c1=O [AS96, 1,3-di-allyl-8-{5-[2-oxo-2-(4-phenyl-piperazin-1-yl)-ethoxy]-2-methyl-2H-pyrazole-3-yl}-xanthine] | > 1000 nM | > 1000 nM | 24 nM |
| CCCn1c(=O)c2[nH]c(-c3cc(OCC(=O)Nc4ccc(OC)c(OC)c4)nn3C)nc2n(CCC)c1=O [AS101, 1,3-di-n-propyl-8-{5-[(3,4-dimethoxy-phenylcarbamoyl)-methoxy]-2-methyl-2H-pyrazole-3-yl}-xanthine] | > 1000 nM | > 1000 nM | 12 nM |

Results, then the compound that gave them:

| Ki [1] | Ki [2] | Ki [3] | Compound |
| --- | --- | --- | --- |
| > 1000 nM | > 1000 nM | > 1000 nM | CCCn1c(=O)c2[nH]c(-c3cc(C(=O)O)n(C)n3)nc2n(CCC)c1=O [AS1, 1,3-di-n-propyl-8-(1-methyl-5-carboxy-1-H-pyrazol-3-yl)-xanthine] |
| > 1000 nM | > 1000 nM | > 1000 nM | CCCn1c(=O)c2[nH]c(-c3cc(NC(=O)CCC(=O)O)nn3C)nc2n(CCC)c1=O [AS8, 4-{[5-(1,3-dipropyl-2,6-dioxo-2,3,6,7-tetrahydro-1H-purin-8-yl)-1-methyl-1H-pyrazol-3-yl]amino}-4-oxobutanoic acid] |
| > 1000 nM | > 1000 nM | > 1000 nM | CCCn1c(=O)c2[nH]c(-c3cc(NC(=O)Cc4ccc(CC(C)C)cc4)nn3C)nc2n(CCC)c1=O [AS14, N-[5-(2,6-dioxo-1,3-dipropyl-2,3,6,9-tetrahydro-1H-purin-8-yl)-1-methyl-1H-pyrazol-3-yl]-2-(4-isobutylphenyl)acetamide] |
| > 1000 nM | > 1000 nM | > 1000 nM | CCCn1c(=O)c2[nH]c(-c3cc(NC(=O)[C@@H](C)c4ccccc4)nn3C)nc2n(CCC)c1=O [AS18, (2S)-N-[5-(2,6-dioxo-1,3-dipropyl-2,3,6,7-tetrahydro-1H-purin-8-yl)-1-methyl-1H-pyrazol-3-yl]-2-phenylpropanamide] |
| > 1000 nM | > 1000 nM | > 1000 nM | CCCn1c(=O)c2[nH]c(-c3cc(NC(=O)[C@H](C)c4ccccc4)nn3C)nc2n(CCC)c1=O [AS19, (2R)-N-[5-(2,6-dioxo-1,3-dipropyl-2,3,6,7-tetrahydro-1H-purin-8-yl)-1-methyl-1H-pyrazol-3-yl]-2-phenylpropanamide] |
| > 1000 nM | > 1000 nM | 1630 nM | CCCn1c(=O)c2[nH]c(-c3cc(NC(=O)Cc4ccc(N(C)C)cc4)nn3C)nc2n(CCC)c1=O [AS26, N-[5-(2,6-dioxo-1,3-dipropyl-2,3,6,9-tetrahydro-1H-purin-8-yl)-1-methyl-1H-pyrazol-3-yl]-2-[4-(N,N-dimethylamino)phenyl]acetamide] |
| > 1000 nM | > 1000 nM | 569 nM | Cn1nc(NC(=O)Cc2ccccc2)cc1-c1nc2c([nH]1)c(=O)n(C)c(=O)n2C [AS40, N-[5-(2,6-dioxo-1,3-dimethyl-2,3,6,9-tetrahydro-1H-purin-8-yl)-1-methyl-1H-pyrazol-3-yl]-2-phenylacetamide] |
| 1760 nM | > 1000 nM | 342 nM | CCCn1c(=O)c2[nH]c(-c3cc(NC(=O)Cc4ccc(O)c(OC)c4)nn3C)nc2n(CCC)c1=O [AS58, N-[5-(2,6-dioxo-1,3-dipropyl-2,3,6,9-tetrahydro-1H-purin-8-yl)-1-methyl-1H-pyrazol-3-yl]-2-(4-hydroxy-3-methoxyphenyl)acetamide] |
| > 1000 nM | > 1000 nM | 55 nM | CCCn1c(=O)c2[nH]c(-c3cc(OCC(=O)N4CCN(c5ccc(F)cc5)CC4)nn3C)nc2n(CCC)c1=O [AS72, 8-(5-{2-[4-(4-Fluoro-phenyl)-piperazin-1-yl]-2-oxo-ethoxy}-2-methyl-2H-pyrazol-3-yl)-1,3-dipropyl-3,7-dihydro-purine-2,6-dione] |
| > 1000 nM | > 1000 nM | 70 nM | CCCn1c(=O)c2[nH]c(-c3cc(OCC(=O)Nc4ccc(F)cc4)no3)nc2n(CCC)c1=O [AS73, 1,3-di-n-propyl-8-{3-[(4-fluoro-phenylcarbamoyl)-methoxy]-isoxazol-5-yl}-xanthine] |
| > 1000 nM | > 1000 nM | 53 nM | CCCn1c(=O)c2[nH]c(-c3cc(OCC(=O)Nc4ccc(OC)cc4)no3)nc2n(CCC)c1=O [AS75, 1,3-di-n-propyl-8-{3-[(4-methoxy-phenylcarbamoyl)-methoxy]-isoxazol-5-yl}-xanthine] |
